Tested on: IL-1β release, THP-1 cells
Assay: IL-1β release assay in differentiated THP-1 cells stimulated with BzATP (Example 9)
Format: cell-based
Settings: Homo sapiens; for inhibition at 0.3 µM: 0.3 μM compound ("+" symbols), differentiated THP-1 cells, 250 uM BzATP, read-out: IL-1β% Inhib. @ 0.3 or 0.1 μM; for IC50: THP-1 cells, BzATP 250 uM, four parameter logistic fit
In short: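 THP-1 cells differentiated 16 h with 100 ng/mL LPS + 100 ng/mL IFN-γ, re-primed 2 h with fresh LPS 100 ng/mL, pretreated 30 min with compound, then stimulated with BzATP 250 uM final for 45 min. Supernatant IL-1β by ELISA; background-adjusted % inhibition, IC50 from four-parameter logistic fit.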

SMILES | inhibition at 0.3 µM [%] | IC50 [nM]
O=C(Cc1cccc(C(F)(F)F)c1F)Nc1c(Cl)ccc2c1CCN(C(=O)CCc1ccccc1)C2 [Compound 3151] | 26 to 50 | 
O=C(Cc1cccc(C(F)(F)F)c1F)Nc1c(Cl)ccc2c1CCN(C(=O)COc1ccccc1)C2 [Compound 3152] | 0 to 25 | 
COc1cccc(C(=O)N2CCc3c(ccc(Cl)c3NC(=O)Cc3cccc(C(F)(F)F)c3F)C2)c1 [Compound 3153] | 0 to 25 | 
O=C(Cc1cccc(C(F)(F)F)c1F)Nc1c(Cl)ccc2c1CCN(C(=O)c1ccc(F)cc1)C2 [Compound 3154] | 0 to 25 | 
CC(C)(C)C(=O)N1CCc2c(ccc(Cl)c2NC(=O)Cc2cccc(C(F)(F)F)c2F)C1 [Compound 3155] | 0 to 25 | 
O=C(Cc1cccc(C(F)(F)F)c1F)Nc1c(Cl)ccc2c1CCN(C(=O)c1cccc(Cl)c1)C2 [Compound 3156] | 0 to 25 | 
CCC(C(=O)N1CCc2c(ccc(Cl)c2NC(=O)Cc2cccc(C(F)(F)F)c2F)C1)c1ccccc1 (centres unmarked) [Compound 3157] | 0 to 25 | 
CC(C)CC(=O)N1CCc2c(ccc(Cl)c2NC(=O)Cc2cccc(C(F)(F)F)c2F)C1 [Compound 3158] | 0 to 25 | 
CN(C)c1ccc(C(=O)N2CCc3c(ccc(Cl)c3NC(=O)Cc3cccc(C(F)(F)F)c3F)C2)cc1 [Compound 3159] | 0 to 25 | 
O=C(Cc1cccc(C(F)(F)F)c1F)Nc1c(Cl)ccc2c1CCN(C(=O)COCc1ccccc1)C2 [Compound 3160] | 0 to 25 | 
N#Cc1ccc(C(=O)N2CCc3c(ccc(Cl)c3NC(=O)Cc3cccc(C(F)(F)F)c3F)C2)cc1 [Compound 3161] | 0 to 25 | 
O=C(Cc1cccc(C(F)(F)F)c1F)Nc1c(Cl)ccc2c1CCN(C(=O)C1CC1c1ccccc1)C2 (centres unmarked) [Compound 3162] | 26 to 50 | 
O=C(Cc1cccc(C(F)(F)F)c1F)Nc1c(Cl)ccc2c1CCN(C(=O)c1ccc(Cl)cc1Cl)C2 [Compound 3163] | 26 to 50 | 
O=C(Cc1cccc(C(F)(F)F)c1F)Nc1c(Cl)ccc2c1CCN(C(=O)C1CCC1)C2 [Compound 3164] | 0 to 25 | 
O=C(Cc1cccc(C(F)(F)F)c1F)Nc1c(Cl)ccc2c1CCN(C(=O)C1CC1)C2 [Compound 3165] | 0 to 25 | 
O=C(Cc1cccc(C(F)(F)F)c1F)Nc1c(Cl)ccc2c1CCN(C(=O)CC1CCCC1)C2 [Compound 3166] | 0 to 25 | 
O=C(Cc1cccc(C(F)(F)F)c1F)Nc1c(Cl)ccc2c1CCN(C(=O)COc1ccc(Cl)cc1)C2 [Compound 3167] | 26 to 50 | 
O=C(Cc1cccc(C(F)(F)F)c1F)Nc1c(Cl)ccc2c1CCN(C(=O)Cc1ccc(Cl)cc1)C2 [Compound 3168] | 0 to 25 | 
O=C(Cc1cccc(C(F)(F)F)c1F)Nc1c(Cl)ccc2c1CCN(C(=O)c1ccc(C(F)(F)F)cc1F)C2 [Compound 3169] | 0 to 25 | 
O=C(Cc1cccc(C(F)(F)F)c1F)Nc1c(Cl)ccc2c1CCN(C(=O)c1ccccc1C(F)(F)F)C2 [Compound 3170] | 0 to 25 | 
Cc1ccc(F)c(C(=O)N2CCc3c(ccc(Cl)c3NC(=O)Cc3cccc(C(F)(F)F)c3F)C2)c1Cl [Compound 3171] | 0 to 25 | 
Cc1nn(-c2ccccc2)nc1C(=O)N1CCc2c(ccc(Cl)c2NC(=O)Cc2cccc(C(F)(F)F)c2F)C1 [Compound 3172] | 0 to 25 | 
O=C(Cc1cccc(C(F)(F)F)c1F)Nc1c(Cl)ccc2c1CCN(C(=O)C1COc3ccccc3O1)C2 (centres unmarked) [Compound 3174] | 0 to 25 | 
O=C(Cc1cccc(C(F)(F)F)c1F)Nc1c(Cl)ccc2c1CCN(C(=O)c1ccc(F)cc1F)C2 [Compound 3175] | 0 to 25 | 
Cc1ccccc1C(=O)N1CCc2c(ccc(Cl)c2NC(=O)Cc2cccc(C(F)(F)F)c2F)C1 [Compound 3176] | 0 to 25 | 

SMILES | inhibition at 0.3 µM [%] | IC50 [nM]
O=C(Cc1cccc(C(F)(F)F)c1F)Nc1c(Cl)ccc2c1CCN(C(=O)c1cc(F)ccc1F)C2 [Compound 3177] | 0 to 25 | 
O=C(Cc1cccc(C(F)(F)F)c1F)Nc1c(Cl)ccc2c1CCN(C(=O)c1ccccc1F)C2 [Compound 3178] | 0 to 25 | 
O=C(Cc1cccc(C(F)(F)F)c1F)Nc1c(Cl)ccc2c1CCN(C(=O)c1cccc(Cl)c1Cl)C2 [Compound 3179] | 26 to 50 | 
Cc1cc(C(=O)N2CCc3c(ccc(Cl)c3NC(=O)Cc3cccc(C(F)(F)F)c3F)C2)no1 [Compound 3180] | 0 to 25 | 
Cc1cc(C(=O)N2CCc3c(ccc(Cl)c3NC(=O)Cc3cccc(C(F)(F)F)c3F)C2)nn1C [Compound 3181] | 0 to 25 | 
O=C(Cc1cccc(C(F)(F)F)c1F)Nc1c(Cl)ccc2c1CCN(C(=O)/C=C/c1ccccc1)C2 [Compound 3182] | 0 to 25 | 
Cc1ccc(C(=O)N2CCc3c(ccc(Cl)c3NC(=O)Cc3cccc(C(F)(F)F)c3F)C2)cc1 [Compound 3183] | 0 to 25 | 
COc1ccccc1C(=O)N1CCc2c(ccc(Cl)c2NC(=O)Cc2cccc(C(F)(F)F)c2F)C1 [Compound 3184] | 0 to 25 | 
O=C(Cc1cccc(C(F)(F)F)c1F)Nc1c(Cl)ccc2c1CCN(C(=O)c1cccc3ccccc13)C2 [Compound 3185] | 0 to 25 | 
CCCC(=O)N1CCc2c(ccc(Cl)c2NC(=O)Cc2cccc(C(F)(F)F)c2F)C1 [Compound 3187] | 0 to 25 | 
CC(C)(C)c1ccc(C(=O)N2CCc3c(ccc(Cl)c3NC(=O)Cc3cccc(C(F)(F)F)c3F)C2)cc1 [Compound 3188] | ≥ 76 | 
O=C(Cc1cccc(C(F)(F)F)c1F)Nc1c(Cl)ccc2c1CCN(C(=O)c1ccc3ccccc3n1)C2 [Compound 3189] | 0 to 25 | 
O=C(Cc1cccc(C(F)(F)F)c1F)Nc1c(Cl)ccc2c1CCN(C(=O)c1ccncc1)C2 [Compound 3190] | 0 to 25 | 
COc1ccc(C(=O)N2CCc3c(ccc(Cl)c3NC(=O)Cc3cccc(C(F)(F)F)c3F)C2)cc1OC [Compound 3193] | 0 to 25 | 
O=C(Cc1cccc(C(F)(F)F)c1F)Nc1c(Cl)ccc2c1CCN(C(=O)CCC1CCCCC1)C2 [Compound 3194] | 26 to 50 | 
O=C(Cc1cccc(C(F)(F)F)c1F)Nc1c(Cl)ccc2c1CCN(C(=O)c1cc(Cl)cc(Cl)c1)C2 [Compound 3195] | 0 to 25 | 
O=C(Cc1cccc(C(F)(F)F)c1F)Nc1c(Cl)ccc2c1CCN(C(=O)c1ccc(C(F)(F)F)nc1)C2 [Compound 3196] | 0 to 25 | 
O=C(Cc1cccc(C(F)(F)F)c1F)Nc1c(Cl)ccc2c1CCN(C(=O)c1ccc(Oc3ccccc3)nc1)C2 [Compound 3197] | 0 to 25 | 
CC(=O)N1CCc2c(ccc(C)c2NC(=O)Cc2ccc(C(F)(F)F)c(F)c2)C1 [Compound 3201] |  | 175
CCC(=O)N1CCc2c(ccc(C)c2NC(=O)Cc2ccc(C(F)(F)F)c(F)c2)C1 [Compound 3203] |  | 85.8
Cc1ccc2c(c1NC(=O)Cc1ccc(C(F)(F)F)c(F)c1)CCN(C(=O)CCC1CCCC1)C2 [Compound 3207] |  | 204
Cc1ccc2c(c1NC(=O)Cc1ccc(C(F)(F)F)c(F)c1)CCN(C(=O)C1CCCC1)C2 [Compound 3208] |  | 60.2
Cc1ccc2c(c1NC(=O)Cc1ccc(C(F)(F)F)c(F)c1)CCN(C(=O)C(C)C)C2 [Compound 3215] |  | 48.6
Cc1ccc2c(c1NC(=O)Cc1ccc(C(F)(F)F)c(F)c1)CCN(C(=O)C(C)(C)C)C2 [Compound 3220] |  | 25.5
Cc1ccc2c(c1NC(=O)Cc1ccc(C(F)(F)F)c(F)c1)CCN(C(=O)CCC1CCCCC1)C2 [Compound 3251] |  | 61.9

Reference: patent US20100298285A1, “Biclycloheteroaryl Compounds as P2x7 Modulators and Uses Thereof” (priority 2006, published 2010)
